Among the data in ChEMBL document CHEMBL1782027, “Synthesis and evaluation of heterobivalent tacrine derivatives as potential multi-functional anti-Alzheimer agents” (Eur J Med Chem, 2011) are IC50 and inhibition values, retold here.

The target of test [1] is Acetylcholinesterase (Electrophorus electricus, UniProt O42275).
Description: Inhibition of electric eel AChE assessed as inhibition of acetylthiocholine chloride substrate hydrolysis incubated for 15 mins before substrate addition measured by spectrophotometry
Test [2] addresses Cholinesterase (Equus caballus, UniProt P81908).
Description: Inhibition of equine serum BuChE assessed as inhibition of butyrylthiocholine chloride substrate hydrolysis incubated for 15 mins before substrate addition measured by spectrophotometry
Test [3] can be described thus: Inhibition of amyloid beta (1 to 42) self-aggregation at 20 uM after 48 hrs by thioflavin T fluorescent dye assay.
Test [4] has as its target Acetylcholinesterase (Electrophorus electricus) (UniProt O42275). Description: Binding affinity at electric eel AChE catalytic active site assessed as inhibition of acetylthiocholine chloride substrate hydrolysis incubated for 15 mins before substrate addition measured by spectrophotometry based Lineweaver-Burk plot analysis.
Test [5] has the same target. Description: Binding affinity at electric eel AChE peripheral anionic site assessed as inhibition of acetylthiocholine chloride substrate hydrolysis incubated for 15 mins before substrate addition measured by spectrophotometry based Lineweaver-Burk plot analysis.

Usually IC50 stands for the concentration that inhibits the measured activity by half. A high value points to weaker potency in that assay. One may read the inhibition as the percentage by which the read-out fell short of the control.

Activity calls are given as the source filed them. The rule behind the calls is not given here.

Chain of Acetylcholinesterase (O42275 whole entry): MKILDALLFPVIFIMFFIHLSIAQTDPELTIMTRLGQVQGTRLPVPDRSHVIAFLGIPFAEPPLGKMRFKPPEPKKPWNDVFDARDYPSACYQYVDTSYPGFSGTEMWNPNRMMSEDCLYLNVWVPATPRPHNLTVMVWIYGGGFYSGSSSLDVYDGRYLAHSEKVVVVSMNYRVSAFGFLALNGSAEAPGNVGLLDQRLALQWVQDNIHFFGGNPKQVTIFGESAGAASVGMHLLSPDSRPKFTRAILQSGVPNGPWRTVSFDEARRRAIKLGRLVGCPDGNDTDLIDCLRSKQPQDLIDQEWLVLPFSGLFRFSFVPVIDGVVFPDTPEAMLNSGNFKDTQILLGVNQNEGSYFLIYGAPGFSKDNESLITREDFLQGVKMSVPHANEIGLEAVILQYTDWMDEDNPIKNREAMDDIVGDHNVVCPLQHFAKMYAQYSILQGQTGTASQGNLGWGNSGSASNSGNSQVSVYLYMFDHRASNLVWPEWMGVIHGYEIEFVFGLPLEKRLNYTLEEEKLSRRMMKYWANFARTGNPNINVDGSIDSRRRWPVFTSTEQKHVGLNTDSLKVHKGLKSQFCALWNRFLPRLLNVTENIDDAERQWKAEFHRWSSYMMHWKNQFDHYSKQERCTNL
Chain of Cholinesterase (P81908 whole entry): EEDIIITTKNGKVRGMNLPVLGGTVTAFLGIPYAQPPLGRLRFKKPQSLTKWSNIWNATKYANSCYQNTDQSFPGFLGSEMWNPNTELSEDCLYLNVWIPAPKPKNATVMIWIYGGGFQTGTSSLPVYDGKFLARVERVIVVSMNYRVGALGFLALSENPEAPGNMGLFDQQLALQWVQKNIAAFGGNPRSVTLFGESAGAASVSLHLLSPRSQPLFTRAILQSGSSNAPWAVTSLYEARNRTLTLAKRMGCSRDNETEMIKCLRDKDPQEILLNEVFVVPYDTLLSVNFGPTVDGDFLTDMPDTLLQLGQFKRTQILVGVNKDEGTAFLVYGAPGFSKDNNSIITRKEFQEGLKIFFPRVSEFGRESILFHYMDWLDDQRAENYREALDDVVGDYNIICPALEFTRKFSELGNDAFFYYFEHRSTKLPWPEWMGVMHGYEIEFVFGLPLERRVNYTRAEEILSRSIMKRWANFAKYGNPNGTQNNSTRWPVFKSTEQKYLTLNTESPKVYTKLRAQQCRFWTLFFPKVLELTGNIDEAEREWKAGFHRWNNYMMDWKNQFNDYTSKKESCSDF
Chain of Acetylcholinesterase (Electrophorus electricus) (O42275 24-633 limits assumed): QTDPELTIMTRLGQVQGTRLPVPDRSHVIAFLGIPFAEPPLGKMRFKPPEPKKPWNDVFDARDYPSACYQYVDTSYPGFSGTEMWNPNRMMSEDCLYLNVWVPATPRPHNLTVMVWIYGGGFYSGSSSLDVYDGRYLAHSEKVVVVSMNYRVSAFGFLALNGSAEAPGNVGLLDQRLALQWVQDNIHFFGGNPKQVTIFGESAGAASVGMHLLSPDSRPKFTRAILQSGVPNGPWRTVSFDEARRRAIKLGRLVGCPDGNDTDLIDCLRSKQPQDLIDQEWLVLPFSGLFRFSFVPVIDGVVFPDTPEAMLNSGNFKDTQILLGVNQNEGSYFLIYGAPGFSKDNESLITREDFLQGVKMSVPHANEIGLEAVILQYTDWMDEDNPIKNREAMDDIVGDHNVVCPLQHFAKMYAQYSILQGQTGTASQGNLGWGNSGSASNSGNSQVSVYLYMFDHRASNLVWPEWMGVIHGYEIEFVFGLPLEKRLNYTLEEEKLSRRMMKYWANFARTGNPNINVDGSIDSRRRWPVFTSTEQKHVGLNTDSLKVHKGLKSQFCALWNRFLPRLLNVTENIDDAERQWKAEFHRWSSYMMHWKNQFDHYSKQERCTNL

Regarding `c1ccc2c(NCCCCCCCCNCc3ccc4c(c3)OCO4)c3c(nc2c1)CCCC3`, the values for the IC50 in test [1] and in test [2] were 6.14 nM and 3.44 nM, respectively.

With `Oc1ccc(CNCCCCCCCCNc2c3c(nc4ccccc24)CCCC3)cc1`, the results for the IC50 in test [1] and in test [2] were 7.48 nM and 5.31 nM, respectively.

In the case of `Oc1ccc(CNCCCCCCNc2c3c(nc4ccccc24)CCCC3)cc1`, the IC50 in test [1] is 25.6 nM; in test [2], 7.5 nM.

With `COc1ccc(CNCCCCCCNc2c3c(nc4ccccc24)CCCC3)cc1OC`, in test [3], the inhibition result is “Active”.

For the compound `COc1cc(CNCCCCCCNc2c3c(nc4ccccc24)CCCC3)ccc1O`, the IC50 in test [1] came to 43.6 nM; in test [2], 9.28 nM.

As for `COc1ccc(CNCCCCCNc2c3c(nc4ccccc24)CCCC3)cc1OC`, the figures for the half-inhibitory concentration (IC50) in test [1] and in test [2] were 104 nM and 24.4 nM, respectively.

Consider `Oc1cccc(CNCCCCCCCCNc2c3c(nc4ccccc24)CCCC3)c1`, for which the values for the IC50 in test [1] and in test [2] were 15.1 nM and 4.91 nM, respectively.

In the case of `O=C(NCCCCCCCCNc1c2c(nc3ccccc13)CCCC2)c1ccncc1`, the IC50 in test [1] is 38.5 nM; in test [2], 38.7 nM.

Take `COc1cc(CNCCCCCCCCNc2c3c(nc4ccccc24)CCCC3)cc(OC)c1O`: the IC50 in test [1] amounted to 4.61 nM; in test [2], 4.08 nM.

Regarding `c1ccc2c(NCCCCCCCCNCc3ccncc3)c3c(nc2c1)CCCC3`, the concentration for half-maximal inhibition (IC50) in test [1] amounted to 4.7 nM; in test [2] it was 4.66 nM.

Turning to `Oc1ccccc1CNCCCCCCCCNc1c2c(nc3ccccc13)CCCC2`, the IC50 was 12.5 nM in test [1] and 10.2 nM in test [2].

As to `COc1cc(CNCCCCCCCCNc2c3c(nc4ccccc24)CCCC3)ccc1O`, the inhibition result in test [4] and in test [5] was “Active” throughout. The IC50 was 4.55 nM in test [1] and 3.41 nM in test [2]. In test [3], this compound showed an inhibition of 71%.

As for `COc1ccc(CNCCCCCCCCNc2c3c(nc4ccccc24)CCCC3)cc1`, the IC50 is 15.3 nM in test [1] and 4.82 nM in test [2].

Compound `COc1cc(/C=C/C(=O)CC(=O)/C=C/c2ccc(O)c(OC)c2)ccc1O` yielded an inhibition in test [3] of 50%.

Regarding `COc1ccc(CNCCCCNc2c3c(nc4ccccc24)CCCC3)cc1OC`, the values for the IC50 in test [1] and in test [2] were 365 nM and 37.2 nM, respectively. The inhibition result in test [3] was “Active”.
